4 compounds from patent US20140050773A1, “COMPOUND COMPRISING ALPHA-MSH FOR USE IN ENDODONTIC REGENERATION” (Universite De Strasbourg, priority 2010, published 2014) can be followed below.

In data set [1] the test system is pulp fibroblasts. The data set can be described thus: Intracellular cAMP accumulation in pulp fibroblasts. It is filed as cell-based, human. Particulars: 30 min; forskolin 3 μM, MTII 10 μg·mL-1; basal level 239±36 fmol/well. The procedure:
Pulp fibroblasts (1×10^5) were plated in 24-well-plates in D-MEM® containing 1% antimicotic solution and 10% FBS (Life Technologies, Paisley, UK). The cultures were incubated at 37° C. in a humidified atmosphere of 5% CO2, and allowed to adhere for 2 h. Cells were then washed and incubated with […] Forskolin (positive control), the MC3/4R agonist MTII (10 μg·mL^−1), the MC1R agonist MS05 (10 μg·mL^−1), and PGA-α-MSH (10-300 μg·mL^−1) in the presence of 1 mM isobutylmethylxantine in serum-free medium and incubated for 30 min at 37° C. in a humidified atmosphere of 5% CO2. A non-treated group incubated in serum-free medium alone served as a negative control. Cell supernatants were then removed and the cells were lysed. Intracellular cAMP was quantified using a commercially available enzyme immunoassay kit and a standard curve constructed with 0-3200 fmol μg·mL-1 cAMP (Amersham Bioscience, Little Chalfont, U.K).
Background: Cyclic AMP is a second messenger, typically raised through Gs and lowered through Gi signalling.

Data set [2] concerns LPS-stimulated pulp fibroblasts. The experiment in a line: TNF-α, IL-8 and IL-10 production by LPS-stimulated pulp fibroblasts (ELISA). The format is cell-based, human. The procedure: Human pulp fibroblasts were obtained from human third molar germ tissue extracted for orthodontic reasons (Dental School, Strasbourg). These tissues were used with the patient's informed consent and approval by the Research Ethics Committee. Human pulp fibroblasts and mouse embryo fibroblasts (NIH 3T3, a gift of IGBMC, Strasbourg, France) were cultured in Dulbecco's modified Eagle's medium (D-MEM®) containing 1% antimicotic solution and 10% FBS (Life Technologies, Paisley, UK). The cultures were incubated at 37° C. in a humidified atmosphere of 5% CO2. When the cells reached sub-confluence, they were harvested with trypsin and sub-cultured. The fibroblast cultures used for all experiments were from passages three to six. Fibroblasts (5×10^5) were seeded in 24-well plates (Nunc, CML, Nemours, France) and incubated with LPS (10 ng·mL^−1) from E, coli in the presence or absence of free α-MSH or PGA-Q-MSH coupled peptides, in D-MEM® without FBS. At different time-points of incubation, cells were centrifuged and the levels of TNF-α, IL-10 or IL-8 in cell-free supernatants were determined using commercially available ELISA kits (Endogen, Woburn, Mass.). Studies of the effects of multilayer films consisting of PGA-α-MSH coupled peptides were conducted by seeding 5×10^5 cells directly onto the film in a 24-well plate as previously described (Chluba et al. Biomacromolecules. 2001, 2:800-805). All experiments were performed at least three times. […]
In general terms: ELISA stands for enzyme-linked immunosorbent assay.

For data set [3], the system named is pulp fibroblasts. The data set can be described thus: Cell proliferation by the acid phosphatase method. The format is cell-based, human. Particulars: in solution, FIG. 4 lower part. Here is the method:
(§1) Cell viability was determined by trypan blue exclusion. Cell proliferation was measured by the acid phosphatase method. Briefly, cells were washed with […] PBS. The buffer added to each well contains 0.1 M sodium acetate (pH 5.5), 0.1% of X-100 Triton and 10 mM of p-nitrophenyl phosphate [pNPP] (Sigma, St Quentin, France). After a 3 h-incubation at 37° C. with 5% 002 the reaction was stopped by the addition of 1 N sodium hydroxide and the absorbance was measured by spectrophotometer at 405 nm (Labsystems, iEMS Reader MF, Gibco). Cell viability and proliferation were measured at 24 and 96 hours. Cell spreading and adhesion were observed by confocal microscopy. AlamarBlue® (Serotec) was used to assess cellular proliferation. The AlamarBlue test is a non-toxic, water-soluble, calorimetric redox indicator that changes color in response to cell metabolism. […] After 6 hours, […] of incubation media was transferred to 96-well plates and measured at 590 nm and 630 nm in order to determine the percentage of AlamarBlue reduction. The ability of free α-MSH and PGA-α-MSH to promote proliferation and/or adhesion of fibroblasts was also determined. Cell viability was determined by trypan blue exclusion and the proliferation was measured by the acidic phosphatase method (FIG. 4).

The test system of data set [4] is pulp fibroblasts. It is filed as cell-based, human. The procedure:
as §1

For data set [5], the system named is pulp fibroblasts. The experiment in a line: Pulp fibroblast adhesion by confocal microscopy. Particulars: 2 days of culture; FIG. 5. It is filed as cell-based, human.
Description: Cell spreading and adhesion were observed by confocal microscopy. […] In this study, 5×10^4 pulp fibroblasts were seeded on the top of LbL-coated 14 mm-diameter coverslips (n=3) placed on 24-well plates. […] After 2 days of proliferation, cells were fixed with 4% PFA during 1 hour, permeabilized with 0.1% Triton X-100 for 1 hour and incubated for 20 min with Alexa Fluor 546-conjugated phalloidin (Molecular Probes) for F-actin labeling and 5 min with 200 nM DAPI (Sigma) for nuclear staining. Cells were mounted on microscope slides using Vectashield (Vector) and imaged by confocal microscopy (Zeiss, LSM 510). CLSM observations were documented with a Zeiss LSM 510 microscope using a ×40/1.4 oil immersion objective at 0.4 μm z-section intervals. FITC fluorescence was detected after excitation at 488 nm with a cutoff dichroic mirror 488 nm and an emission band-pass filter 505-530 nm (green). All experiments were performed with cells in solution.
In data set [6] the target is MCR receptors (melanocortin receptors) on human pulp fibroblasts. The data set can be described thus: cell-based or functional assay.

In the data set on pulp fibroblasts [1], `C=C[C@@]1(C)CC(=O)[C@]2(O)[C@@]3(C)[C@@H](O)CCC(C)(C)[C@@H]3[C@H](O)[C@H](OC(C)=O)[C@@]2(C)O1` [forskolin, Forskolin] returned a cAMP concentration of 3367±242 fmol/well.
With “HS—CH2CH2-Ser-Tyr-Ser-Nle-Glu-His-D-Phe-Arg-Trp-Gly-Lys-Pro-Val-COOH [α-MSH]”, in data set [2] (100 μg·mL^−1, 6 h time period), the “LPS-induced IL-8 secretion” value is recorded as “no inhibition”. For the same compound, the “IL-10 production by LPS-stimulated pulp fibroblasts” value in data set [2] (LPS 10 ng mL^−1, 100 μg·mL-1 peptide, late (4 hours)) is on record as “induced significant levels”. Also, the “amount of IL-8 produced (LPS-stimulated)” value in data set [2] (concentration increased to 400 μg·mL-1, data not shown) is recorded as “did not change”. For the same compound, the “LPS induced TNF-α secretion” value in data set [2] (early timepoints (20 min to 2 h), LPS 10 ng mL^−1, 100 μg·mL-1 peptide) was “significantly inhibited”; in data set [2] (later time-points (4-6 h), LPS 10 ng mL^−1, 100 μg·mL-1 peptide), “this effect was lost”. Also, the “proliferation of pulp fibroblasts” value with pulp fibroblasts [3] is recorded as “inhibits the proliferation”; in the data set with pulp fibroblasts [3] (listed as free α-MSH), “without effect”. The “viability of pulp fibroblasts” value in the data set on pulp fibroblasts [4] is reported as “not the viability”. Besides, the “adhesion of pulp fibroblasts” value in the data set with pulp fibroblasts [5] is “without effect”.
Turning to MTII, in the data set with pulp fibroblasts [1], the cAMP concentration worked out at 459±14 fmol/well.
MTII (peptide) returned an intracellular cAMP accumulation in pulp fibroblasts, 30 min in data set [6] of 459 fmol/well.
